Test results published in patent US20230339983A1, “FLUORESCENT COMPOUNDS SPECIFIC FOR PLURIPOTENT STEM CELLS AND REPROGRAMMING-READY CELLS AND METHODS OF USING THE SAME” (Agency for Science, Technology and Research, priority 2018, published 2023).

Test system: reprogramming ASCs
Assay: BDL-E5 live staining time course of episomally reprogrammed ASCs on MG
Format: cell-based, human
Method: Episomal plasmids developed by Yamanaka's lab were obtained from Addgene: pCXLEhOct3/4-shp53-F (Addgene #27077), pCXLE-hSK (Addgene #27078), pCXLE-hUL (Addgene #27080) and pCXLE-EGFP (Addgene #27082) (Okita, et al. (2011). Nat Methods 8, 409-412). 1×10^6 cells were suspended together with 1 μg of each episomal vector in Nucleofector solution supplied in the Nucleofector Kit R (Lonza). Then the cells were transfected with the Program FF-113 on a Nucleofector 2b Device. The transfected cells were then cultured in ASC or DPSC medium (MSC medium) supplemented with 0.5 mM sodium butyrate, with daily media change. On Day 7 dpn, 1×10^5 viable cells were seeded over MEF feeders (GlobalStem) into one well of a 6-well plate for feeder-based iPS derivation; 2×10^5 viable cells were seeded for feeder-free iPS derivation into one well of a 6-well plate pre-coated with Matrigel (Corning). The next day, MSC medium was changed to feeder-based hES medium (DMEM/F12 supplemented with 20% knock out serum replacement, 1% GlutaMAX, 1% NEAA, Pen/Strep, 0.1 mM p-mercaptoethanol and 10 ng/ml b-FGF) or to feeder-free mTeSR1 (StemCell Technologies), supplemented with sodium butyrate. At 12 dpn, supplementation of sodium butyrate was stopped, and conditioned further with SMC4 cocktail (consisting of small molecules: PD0325901, CHIR99021, Thiazovivin, and SB431542 (FOCUS Biomolecules)) in hES medium/mTeSR1. This media supplement was continued until initial colony formation began.
Reprogrammed cells were immune-stained with fluorescent live cell stain TRA-1-60 (R&D Systems, GloLIVE NL557) as per manufacturer's instructions. After incubating with the live staining antibodies for 30 min and Hoechst 33342 for 10 min, cells were washed 3 times with PBS and images with the Cy5 and DAPI channels, respectively, were immediately captured.
Further experiments were carried out using BDL-E5. To determine whether BDL-E5 identifies the early stages of pluripotency, ASCs and DPSCs were reprogrammed using nucleofection of episomal vectors, and seeded onto MG-coated plates (feeder-free, viral-free reprogramming method). […]

COc1cc(F)c(/C=C/c2cc(C)c3n2[B-](F)(F)[N+]2=C(CCC(=O)NCCN(C)C)C=CC2=C3)cc1OC [BDL-E5]
intensity of fluorescence of staining at 7, 14, 21, 28 dpn (iPS colonies formed from ASCs): increased with increasing time | fate of stained cells tracked in the same field of view until colony formation (reprogrammed ASCs, staining every 48 h, 10-24 dpn): only cells staining positive for BDL-E5 formed iPS colonies | time at which positive cells/colonies were found (reprogramming ASCs, MG-coated plates, episomal feeder-free): around 14 dpn
